# According to patent US20180273464A1, “SYNTHESIS AND IN VITRO ACTIVITY OF D-LACTIC ACID OLIGOMERS” (priority 2018, published 2018):
# Columns and labels:
# [1] = Sequestration of L-lactate by D-lactic acid oligomers, tetrazolium indicator color test strips; settings: for Tetrazolium indicator (L-lactic acid): room temperature, 2 minutes; for sequestration of L-lactate in vitro: summary statement
# Protocol: Lactic acid concentration was measured by tetrazolium indicator color test strips (Accuvin, LLC, Napa, Calif.) from the reaction of L-lactic acid and […] in the presence of lactate dehydrogenase. Samples of D-lactic acid oligomers (n=2, n=3, n=4, n=5, and n=6) were weighed on truncated 100 microliter pipette tips. […] The reactions were carried out at room temperature for 2 minutes, then 20 microliters were applied to L-lactic acid test strips, and the results were read after 2 minutes.
# [2] = earlier work (Goldberg, Weinberg 2017); cited from earlier work
# cultured leukemia cells = settings: earlier work (Goldberg, Weinberg 2016, 2017); cited from earlier work
# normal fibroblasts = settings: at a similar hydrogen ion concentration; cited from earlier work
# HeLa cells = settings: earlier work (Goldberg, Weinberg 2016, 2017); cited from earlier work
# retinoblastoma cells = settings: earlier work (Goldberg, Weinberg 2016, 2017); cited from earlier work
# [3] = 5.0 mg oligomer in 40 microliters of 10 mM L-lactic acid
smiles,measurement,setting,value
"CC(O)C(=O)OC(C)C(=O)OC(C)C(=O)OC(C)C(=O)O [D-lactic acid n = 4, D-lactic acid tetramer]",Tetrazolium indicator (L-lactic acid),[1]; [3],greater than 400 mg/L
same,sequestration of L-lactate in vitro,[1],did not sequester L-lactate
C[C@@H](O)C(=O)O[C@H](C)C(=O)O [D-lactic acid dimer],Tetrazolium indicator (L-lactic acid),[1]; 0.5 mg oligomer in 40 microliters of 10 mM L-lactic acid,80 mg/L
same,Tetrazolium indicator (L-lactic acid),[1]; 1.0 mg oligomer in 40 microliters of 10 mM L-lactic acid,no color change
same,Tetrazolium indicator (L-lactic acid),"[1]; 5.0 mg oligomer in 40 microliters of 10 mM L-lactic acid, result in words",no color change
same,Tetrazolium indicator (L-lactic acid),[1]; 7.0 mg oligomer in 40 microliters of 10 mM L-lactic acid,no color change
same,sequestration of L-lactate,[2],“sequester or trap” L-lactate
same,killing of cultured leukemia cells,cultured leukemia cells,kill
same,cytotoxicity to normal fibroblasts compared with L-lactic acid,normal fibroblasts,less cytotoxic than L-lactic
same,killing of cultured HeLa cells,HeLa cells,kill
same,killing of cultured retinoblastoma cells,retinoblastoma cells,kill
"C[C@@H](O)C(=O)O[C@H](C)C(=O)O[C@H](C)C(=O)O [D-lactic acid n = 3, D-lactic acid trimer]",Tetrazolium indicator (L-lactic acid),[1]; [3],greater than 400 mg/L
same,sequestration of L-lactate in vitro,[1],did not sequester L-lactate
"CC(O)C(=O)OC(C)C(=O)OC(C)C(=O)OC(C)C(=O)OC(C)C(=O)OC(C)C(=O)O [D-lactic acid n = 6, D-lactic acid hexamer]",Tetrazolium indicator (L-lactic acid),[1]; [3],greater than 400 mg/L
same,sequestration of L-lactate in vitro,[1],did not sequester L-lactate
"CC(O)C(=O)OC(C)C(=O)OC(C)C(=O)OC(C)C(=O)OC(C)C(=O)O [D-lactic acid n = 5, D-lactic acid pentamer]",Tetrazolium indicator (L-lactic acid),[1]; [3],greater than 400 mg/L
same,sequestration of L-lactate in vitro,[1],did not sequester L-lactate
